Measurements published in PMC6201879, “N-substituted phenylbenzamides of the niclosamide chemotype attenuate obesity related changes in high fat diet fed mice” (PLoS ONE, 2018).

Tested on: phospho-AMPK Thr-172 (p-AMPK)
Assay: Western blot of phospho-AMPK Thr-172 in HEK293T cells
Assay type: cell-based, human
Settings: 1 and 10μM, negatives re-screened at 5 and 20 μM, 3 hours
Method: AMPK is a metabolic sensor that maintains cellular energy supply. As validation of these changes in lipid metabolism and cellular respiration we evaluated phospho-AMPK Thr-172 (p-AMPK) levels by Western blot in HEK293 cells treated with the phenylbenzamide derivatives. Compounds were screened at 1 and 10μM using the known uncouplers niclosamide and FCCP as positive controls (Fig 4A). […] We concluded that compounds that had little effect on oxygen consumption rates also had little effect on phosphorylation of AMPK.

## CC(C)(C)c1ccc(O)c(C(=O)Nc2ccc(C(=O)O)cc2C(F)(F)F)c1 [Compound 500873, 4-[(5-tert-butyl-2-hydroxy)amido]-3-(trifluoromethyl)benzoic acid]
  phosphorylation of AMPK (p-AMPK Thr-172) by Western blot: no detectable changes in pAMPK levels
